How the values were obtained:
[1] = tested on: IFNα inducible genes MX2, ISG15 and IRF7; assay: IFNα inducible gene expression (quantitative RT-PCR) in draining lymph nodes and spleen of treated mice; type: in vivo; conditions: draining LNs and spleen of C26 tumor-bearing Balb/c mice, second day of second weekly treatment, FIG. 3
Experimental: Expression of IFNα inducible genes in dLN and spleen of treated mouse. RNA was isolated from draining lymph nodes and spleen after second treatment with TLRL or cyclophosphamide or combination therapy and relative expression of IFNα inducible genes MX2, ISG15 and IRF7 were determined by quantitative RT-PCR. Values indicate the mRNA expression of indicated IFNα inducible genes relative to housekeeping gene Actin.
Balb/c mice, 6-8 weeks of age, female, purchased from Vital River Beijing, C26 cells were injected s.c. in the back of anesthetized mice. Treatment was started when tumor volumes reached 100-120 mm^3, i.p. injections of cyclophosphamide or i.v. injections of […] of TLRL (resiquimod) or a combination of the treatments were given once weekly. On second day of second treatment, (that is, on the eighth day) draining LNs and spleen from treated mice were dissected and RNA was extracted using TRIzol reagent. After cDNA was reversed-transcribed, the quantitative Real-Time PCR was performed and IFNα inducible gene expression data were normalized relative to geometric mean of […] housekeeping genes (Actin): […]

[2] = tested on: CD45^+ cell infiltration in C26 tumor; assay: Immunohistochemistry of CD45 positive cells in tumors of treated mice; type: in vivo; design: dose or concentration left out as unconfirmed; conditions: C26 tumor in Balb/c mice, tumor taken on second day of second weekly treatment, cyclophosphamide i.p., TLRL i.v., FIG. 2
Experimental: Histological characterization of CD45 positive cells were performed in treated mice. Tumor samples were obtained from mice treated with TLRL, cyclophosphamide or TLRL/cyclophosphamide. Histological sections were counterstained with hematoxylin and eosin (H&E).
Balb/c mice, 6-8 weeks of age, female, purchased from Vital River Beijing, C26 cells were injected s.c. in the back of anesthetized mice. Treatment was started when tumor volumes reached 100-120 mm^3, i.p. injections of cyclophosphamide or i.v. injections of 1.6 g of TLRL (resiquimod) or combination were given once weekly. On second day of second treatment, tissue specimens of the tumor from treated mice were surgically removed, fixed in 4% buffered formaldehyde for 24 h, processed into paraffin, then sectioned at 5 μm. For immunohistochemistry, tissue sections were deparaffinised followed by antigen-retrieval in Tris-EDTA buffer (0.01 M pH 9.0) at high temperature (water bath, 30 minutes at 98° C.). […] After washing with PBS three times, secondary antibody goat antibody rat HPR was applied. Standard DAB (3,3′-diaminobenzidine) kit was used for visualization and section was counterstained with H&E used according to the protocols recommended by the manufacturer.

[3] = tested on: C26 colon tumor cell line; assay: In vivo tumor cell killing, C26 syngeneic tumor model, cyclophosphamide with TLRL combination therapy; design: dose or concentration left out as unconfirmed; conditions: C26 cells s.c. in BALB/c mice; cyclophosphamide i.p., TLRL (resiquimod) i.v., or both; once weekly for three times; FIG. 1B
Experimental: FIG. 1A-D depicts evaluation of the antitumor effects of Cyclophosphamide/TLRL combination therapy in syngeneic tumor model. FIG. 1A: Scheme of therapy protocol developed to treat C26 tumor. The treatment was initiated at d10 with tumor size 100-120 mm^3 following tumor challenges, and was administered weekly for 3 cycles starting at day 10. FIG. 1B: Antitumor effects of systemic TLRL (Resiquimod) in C26 tumor model. 4×10^5 cells were inoculated subcutaneously in Balb/c mice. After the tumor was allowed to grow for 10 days, groups of 8 mice were treated with Vehicle or with intraperitoneally administration of 1 mg of Cyclophosphamide, or with intravenously administered 1.6 g of TLRL or combination therapy at the dose shown. The compound was administered weekly for three cycles. The data are represented by the median tumor volume measurements of each group. Data for each group of 8 mice are expressed as means±SD. Statistical comparisons were performed using Student's t-Test. […]
All BALB/c mice were maintained under specific pathogen free conditions and used between 6-16 weeks of age in accordance to the animal experimental guidelines set by the Institutional Animal Care and Use Committee. […] Tumor volumes were measured along three orthogonal axes (x, y, and z) and calculated as tumor volume=(xyz)/2. […]

| SMILES | IFNα inducible gene expression (MX2, ISG15, IRF7) relative to Actin [1] | IFNα inducible gene expression (MX2, ISG15, IRF7) relative to Actin ([1]; listed as TLRL) | infiltration of CD45^+ cells in tumor microenvironment [2] | infiltration of CD45^+ cells in tumor microenvironment ([2]; listed as TLRL) | effect in reducing tumor volume [3] |
| --- | --- | --- | --- | --- | --- |
| CCOCc1nc2c(N)nc3ccccc3c2n1CC(C)(C)O [TLRL (resiquimod), 4-amino-2-(ethoxymethyl)-a,a-di-methyl-1H-imidazo[4,5-c]quinoline-1-ethanol] | Upregulating IFNα inducible gene clusters were observed | increased IFNα inducible gene expression | significant numbers of CD45^+ cell were infiltrated | increased infiltration of activated immune cells (CD45^+) | similar |
| O=P1(N(CCCl)CCCl)NCCCO1 (stereo not drawn) [cyclophosphamide] |  |  |  |  | similar |

Source: patent US20220175762A1, “IMMUNE MODULATORY COMPOSITIONS AND METHODS FOR TREATING CANCERS” (Birdie Biopharmaceuticals, Inc., priority 2019, published 2022)
